Reference: US20250319068A1, “TREATMENT OF DISEASES VIA ADMINISTRATION OF BUNTANETAP AND AN […] AGENT” (ANNOVIS BIO, INC., priority 2024, published 2025)
Entries after “also recorded” stand apart in the source; their conditions may differ. Where two headings read alike, the source gives them in different places.

Legend:
[1] = clinical studies; cited from earlier work
[2] = test system: CSF levels of sAPPα, sAPPβ, Aβ42, Tau (total and phosphorylated), alpha-synuclein and inflammatory markers; conditions: cited from earlier work
[3] = cited from earlier work
[4] = test system: patients with mild to moderate AD; assay: Phase II/III trial in mild to moderate AD, 12 weeks (NCT05686044); format: in vivo, human
Procedure: A randomized, double-blind, placebo-controlled Phase II/III study trial investigating the efficacy, safety, and tolerability of buntanetap in patients with mild to moderate AD was conducted. This was a dose-ranging study where patients received either one of three doses of buntanetap (7.5 mg, 15 mg, or 30 mg) or placebo on top of their standard of care for 12 weeks. In this study, over 700 patients were screened, a total of 353 patients were enrolled, and 325 patients completed the study across 54 sites in the US. The study included mild to moderate AD patients whose Mini Mental State Examination (MMSE) scores at baseline ranged from 14 to 24. (www.clinicaltrials.gov (NCT05686044)).
Beyond safety, the trial assessed the changes in two co-primary endpoints: Alzheimer's Disease Assessment Scale-Cognitive Subscale 11 (ADAS-Cog 11) and Alzheimer's Disease Cooperative Study Clinician's Global Impression of Change (ADCS-CGIC), which assess cognition and activities of daily living. The study monitored for safety and collected plasma to measure several biomarkers to assess the disease state, potential disease progression, and treatment effects.
The treatment response in the current study was not related to a patient's age or sex.
EOT-End of Treatment *P<0.05; **P<0.01; ***P<0.001.
When the baseline MMSE scores for patients positive for AD according to their pTau217/tTau >4.2% ratio were subdivided, a dose-dependent relationship to MMSE at baseline was observed. It was concluded that the response to buntanetap treatment is more pronounced in mild AD patients than in those with more advanced AD. The response in the 30 mg dose treatment group R2=0.17 (R^2 or the coefficient of determination), p <0.001, indicates statistical significance of the MMSE score, which was not evident in the placebo group.

[5] = test system: APP; assay: APP in vitro, Western blot in SH-SY-5Y cells (FIG. 1); format: cell-based; conditions: SH-SY-5Y human neuroblastoma cells; 0, 0.1, 1, 5 and 10 μM
[6] = test system: tau; conditions: Human tau mice; unpublished observation; cited from earlier work
[7] = test system: αSYN; conditions: neuroblastoma cells; cited from earlier work
[8] = test system: APP; conditions: neuroblastoma cells; cited from earlier work
[9] = test system: human SNCAA53T tg mouse model of PD; conditions: cited from earlier work
[10] = test system: Ts65dn mouse model of Down Syndrome (DS); conditions: cited from earlier work
[11] = test system: fully differentiated Down syndrome nerve cells; conditions: cited from earlier work
[12] = Phase 1 single and multiple ascending dose safety, tolerance, pharmacokinetic studies; conditions: pharmacokinetic analyses of Phase I studies
Procedure: This publication reported the results of a Phase 2a Clinical Study which was a double-blind, placebo-controlled, multi-center study of 14 early AD patients and 54 early PD patients. AD patients were given either 80 mg buntanetap or placebo QD. PD patients were given 5 mg, 10 mg, 20 mg, 40 mg, 80 mg buntanetap or placebo QD. The primary endpoint was safety and tolerability; secondary endpoint is pharmacokinetics of buntanetap in plasma.
The double phase 2 clinical trial recruited 14 AD (Alzheimer's disease) and 54 patients and treated them over 25 with a once daily dose of buntanetap. The 14 AD patients receive either 80 mg QD or placebo, whereas the 54 PD (Parkinson's disease) patients received 5, 10 20, 40 80 mg QD or placebo.

[13] = test system: APP and its fragments; conditions: APP/PS1 transgenic mice; cited from earlier work
[14] = test system: tau; conditions: unpublished observation, Peter Davies Laboratory; cited from earlier work
[15] = test system: rat acute glaucoma model; conditions: cited from earlier work
[16] = test system: APP and its fragments; assay: APP in vivo in APP/PS1 transgenic AD mice, hippocampus (FIG. 2A); parameters: species or system mouse
Source text: FIG. 2A is a Table, collection of graphs and a Western blot showing that buntanetap treatment of APP/PS1 transgenic AD mice reduced APP and its fragments in hippocampus.
FIG. 2A, APP in vivo. […] GAPDH and Synaptophysin were loading controls. FIG. 2 also includes a collection of graphs showing relative density of APP plotted against control and time after buntanetap treatment; relative density of CTFβ plotted against control and time after buntanetap treatment; relative density of CTFα plotted against control and time after buntanetap treatment; Aβ42 levels in brain tissue plotted against control and time after buntanetap treatment; and Aβ40 levels in brain tissue plotted against control and time after buntanetap treatment. Finally, FIG. 2 also includes a Western blot showing levels of APP, NSB, CTFβ, and CTFα after buntanetap treatment over time (minutes).

[17] = test system: CSF levels of sAPPα, sAPPβ, Aβ42, Tau (total and phosphorylated), alpha-synuclein and inflammatory markers; assay: Study of MCI subjects: CSF biomarkers before and after 10 days of buntanetap; conditions: before and after 10 days of administration
Source text: FIG. 3 is a study of subjects with mild cognitive impairment (MCI) for early proof of mechanism (POM) using a well-tolerated dose of buntanetap. Before and after 10 days of buntanetap administration to the MCI subjects, plasma, and cerebrospinal fluid (CSF) samples were obtained for analysis of levels of secreted(s) APPα and APPβ, and Aβ42, Tau (total and phosphorylated), and inflammatory markers.

[18] = test system: early AD patients and early PD patients; conditions: cited from earlier work
[19] = test system: APP/PS1 transgenic (tg) mouse model of AD; conditions: cited from earlier work
[20] = test system: Huntingtin Protein; conditions: through Translational Suppression; cited from earlier work
[21] = test system: αSYN; conditions: transgenic Parkinson's animals; cited from earlier work
[22] = test system: traumatic brain injury rats; conditions: cited from earlier work
[23] = test system: dementia with Lewy bodies (DLB) in men; conditions: cited from earlier work; for risk of DLB lower compared to 5ARIs / risk of DLB lower compared to tamsulosin: terazosin, doxazosin, or alfuzosin pooled
[24] = men newly started on terazosin, doxazosin, or alfuzosin (pooled) vs matched men taking tamsulosin

CN1CC[C@@]2(C)c3cc(OC(=O)Nc4ccccc4)ccc3N(C)[C@@H]12 [phenserine, (−)-N-phenylcarbamoyl eseroline]
side effects [1]: high cholinomimetic side effects

CN1CC[C@]2(C)c3cc(OC(=O)Nc4ccccc4)ccc3N(C)C12 (stereo partly drawn) [Buntanetap, (3aR)-1,3a,8-trimethyl-1,2,3,3a,8,8a-hexahydropyrrolo[2,3-b]indol-5-yl phenylcarbamate]
duration of effect in lowering neurotoxic proteins and inflammation after the last dose ([2]; CSF sampling period after the last dose): ≥ 12 h | levels of APP, Tau, and αSYN in the cerebrospinal fluid (CSF) ([2]; MCI subjects, 4×60 mg/day): normalized | half-life in CSF ([2]; MCI subjects): > 12 h | inflammation in human CSF ([2]; MCI subjects): lowered inflammation | CSF Aβ42 ([2]; five MCI subjects): trend to lower | CSF levels of sAPPα, sAPPβ, t-tau, p-tau, and specific inflammatory markers ([2]; five MCI subjects): significantly lowered | tolerability ([3]; healthy human volunteers, doses up to 4×60 mg daily X 10 days): well tolerated | terminal half-life ([3]; plasma, cleared biphasically): 4.3 to 4.7 h | Non-Responders (Number) ([4]; 7.5 mg): 5 | Non-Responders (Percentage) ([4]; 7.5 mg): (26.32%) | Responders (Number) ([4]; 7.5 mg): 14 | Responders (Percentage) ([4]; 7.5 mg): (73.68%)** | Non-Responders (Number) ([4]; 15 mg): 7 | Non-Responders (Percentage) ([4]; 15 mg): (28.00%) | Responders (Number) ([4]; 15 mg): 18 | Responders (Percentage) ([4]; 15 mg): (72.00%)** | Non-Responders (Number) ([4]; 30 mg): 3 | Non-Responders (Percentage) ([4]; 30 mg): (12.50%) | Responders (Number) ([4]; 30 mg): 21 | Responders (Percentage) ([4]; 30 mg): (87.50%)*** | difference in the proportion of participants who improved relative to placebo ([4]; 30 mg group): three-fold difference | ADAS-Cog 11 scores relative to placebo ([4]; patients with mild AD, each treatment dose): significantly higher improvement | APP in relation to Actin standard (Western blot) [5]: lowers APP in vitro in a dose-dependent manner | tau in vivo [6]: lowers tau | αSYN in vitro [7]: lowers αSYN | levels of APP in vitro [8]: lowers levels of APP | colonic motility [9]: Restored colonic motility | memory and learning [10]: Restored memory and learning | anterograde and retrograde vesicle transport [11]: Normalized anterograde and retrograde vesicle transport | brain concentration relative to plasma [12]: about 8 times | levels of APP and all its fragments [13]: lowers levels of APP and all its fragments | tau in vitro [14]: lowers tau | retina ([15]; acute glaucoma): Preserved the retina | nerve cell protection ([15]; rat acute glaucoma model): protected nerve cells | duration of reduction of APP and all related peptides in hippocampus after the last dose ([16]; APP/PS1 mice): at least 9 hours | APP and its fragments in hippocampus ([16]; APP/PS1 transgenic AD mice): reduced | APP/Aβ, tau/phosphor-tau and alpha-synuclein in the spinal fluid (FIG. 3) [17]: normalized | axonal integrity and synaptic function ([18]; AD and PD cohorts): improving; also recorded: improved | inflammatory factors / markers ([18]; AD and PD cohorts): trend in lowering levels; also recorded: reduced | neurotoxic protein biomarkers ([18]; AD and PD cohorts): trend in lowering levels; also recorded: reduced | safety and tolerability ([18]; AD and PD patients, doses up to 80 mg): well tolerated; also recorded: safe and promising | crossing of the blood brain barrier ([18]; AD and PD patients): crossed the blood brain barrier | ADAS-Cog11 and WAIS coding (cognition) ([18]; AD patients, 80 mg QD): statistically significant improvements; also recorded: improved cognition | motor function as measured by MDS-UPDRS (Part II, III, IV and total) ([18]; PD patients, 5-80 mg QD, maximum improvement for 10 & 20 mg): improved at all doses motor function | MDS-UPDRS and WAIS coding ([18]; PD patients): statistically significant improvements | WAIS speed and accuracy ([18]; PD patients): improved | Cmax and AUC ([18]; plasma, up to 80 mg QD): increased with dose without evidence for a plateau | synaptic transmission in hippocampus ([19]; APP/PS1 tg mice): Normalized impaired synaptic transmission | memory and learning ([19]; APP/PS1 tg mouse model of AD): Restored memory and learning | levels of Huntingtin Protein [20]: reduced the levels of Huntingtin Protein | αSYN in vivo in the brain and in the gut [21]: lowers αSYN | inflammation in the rat brain ([22]; after TBI): lowered inflammation | nerve cell protection in rat substantia Ingra ([22]; after TBI): protected nerve cells | synaptic transmission in rat striatum ([22]; after traumatic brain injury (TBI)): Normalized impaired synaptic transmission | memory and learning ([22]; traumatic brain injury rats): Preserved memory and learning

COc1cc2nc(N(C)CCCNC(=O)C3CCCO3)nc(N)c2cc1OC (stereo not drawn) [alfuzosin]
hazard ratio [HR] of developing DLB [23, 24]: 0.60 | risk of DLB lower compared to 5ARIs [23]: 37% | risk of DLB lower compared to tamsulosin [23]: 40% | hazard ratio [HR] of developing DLB ([23]; vs matched men taking 5ARI): 0.73

COc1cc2nc(N3CCN(C(=O)C4COc5ccccc5O4)CC3)nc(N)c2cc1OC (stereo not drawn) [doxazosin]
hazard ratio [HR] of developing DLB [23, 24]: 0.60 | risk of DLB lower compared to 5ARIs [23]: 37% | risk of DLB lower compared to tamsulosin [23]: 40% | hazard ratio [HR] of developing DLB ([23]; vs matched men taking 5ARI): 0.73

CCOc1ccccc1OCCN[C@H](C)Cc1ccc(OC)c(S(N)(=O)=O)c1 [tamsulosin]
hazard ratio [HR] of developing DLB ([23]; vs matched men taking 5ARI): 1.17

COc1cc2nc(N3CCN(C(=O)C4CCCO4)CC3)nc(N)c2cc1OC (stereo not drawn) [terazosin]
hazard ratio [HR] of developing DLB [23, 24]: 0.60 | risk of DLB lower compared to 5ARIs [23]: 37% | risk of DLB lower compared to tamsulosin [23]: 40% | hazard ratio [HR] of developing DLB ([23]; vs matched men taking 5ARI): 0.73
